# Assay results published in patent US8227457B2, “Method for treatment of diseases” (DMI Acquisition Corp., priority 2009, dated 2012).
# Key:
# [1] = test system: human brain endothelial cells; experiment: Transendothelial electrical resistance (TER), Example 4, brain cells; assay type: cell-based; conditions: 1 μM, brain endothelial cell monolayers, except at the earliest time point
# Description: (§1) […]. Assays were also performed in the same manner using passage 8 human brain endothelial cells and passage 8 human umbilical vein endothelial cells.
# (§2) An initial TER measurement was taken for each insert using EVOM^2 voltohmmeter connected to an STX100 electrode (both from World Precision Instruments). Measurements were also taken at 24, 48, 72 and 144 hours. All data are presented as TER measurements/cm^2 of insert with TER of blank inserts subtracted.
# [2] = test system: human retinal endothelial cells; experiment: TER of retinal endothelial cell monolayers with steroid receptor antagonists and hormones, Example 10; conditions: for effect on TER compared to the control: Example 10, concentrations of Table 10
# HUVECs [3] = experiment: HUVEC tube formation assay on matrigel plugs; assay type: cell-based, human; conditions: 18 hours, 5% FCS
# Description: To investigate the formation of capillary-like structures by HUVECs, the Angiogenesis System: Endothelial Cell Tube Formation Assay was purchased from BD Biosciences (San Jose, Calif.) and used according to the manufacturer's protocol. In brief, 100,000 HUVECs were seeded onto rehydrated matrigel plugs in 96 well tissue culture plates in the presence of 5% FCS to induce tube formation.
# Endothelial cells when cultured in the presence of angiogenic substances and supplied with an extracellular matrix scaffold will differentiate into structures loosely resembling capillary vessels.
# [4] = test system: human retinal endothelial cells; experiment: Transendothelial electrical resistance (TER), Example 4, retinal cells; assay type: cell-based; conditions: 1 μM, retinal endothelial cell monolayers
# Description: as §1, §2
# [5] = test system: human umbilical vein endothelial cells; experiment: Transendothelial electrical resistance (TER), Example 4, HUVEC; assay type: cell-based; conditions: 1 μM, umbilical vein endothelial cell monolayers
# Description: as §1, §2
# [6] = test system: human renal glomerular microvascular endothelial cells; experiment: Actin stress fiber formation, Example 11, glomerular cells; conditions: danazol 1 μM with TNFα 1 ng/ml
# [7] = test system: Primary human umbilical vein endothelial cells (HUVECs); experiment: HUVEC cell proliferation (Celltiter 96 AQueous One Solution assay); assay type: cell-based; conditions: 100 μM danazol, all time points
# Description: Primary human umbilical vein endothelial cells (HUVECs) and EGM-2 growth medium were obtained from Cambrex (Walkersville, Md.). The cells were passaged in medium supplemented with 2% fetal calf serum (FCS) in tissue culture flasks at 37° C. and 5% CO2. Subculturing was performed using trypsin when 60-80% confluence was obtained as specified by the supplier.
# Cryopreserved ampoules of passage 2 HUVECs were thawed and plated in 96 well tissue culture plates at 5,000 cells/cm^2. […]. In short, medium was aspirated from each well and the cells were washed with 200 μl Hepes buffered saline (HBSS) from Cambrex warmed to 37° C. 100 μl diluted celltiter solution (15 μl stock+85 μl EGM-2 containing 0.1% FCS) were added to each well and incubated for an additional 4 hours. Optical density was determined by microplate reader using a 530 nm filter after blank subtraction and data presented as OD±standard deviation. The final concentration of ethanol in the wells was less then 0.2% and had no effect on cell proliferation or viability.
# All data are presented as representative experiments done in triplicate. Differences between subsets were analyzed using student t-test in Microsoft Excel. P<0.05 was considered statistically significant.
# […]. The celltiter assay is based on the reduction of the assay solution by dehydrogenase enzymes to a formazan dye that directly correlates to cell number.
# HUVECs [8] = experiment: HUVEC scratch migration assay; assay type: cell-based, human; conditions: 50 μM, 75 μM and 100 μM
# Description: Passage 8 HUVECs, lot number 8750 (obtained from Lonza), were plated in 6-well plates (ICS BioExpress) in endothelial growth medium-2 (EGM-2) complete medium (obtained from Lonza). […] The monolayers were then “scratched” with a 1000 μl pipet tip and washed two times with warm EGM-2 medium. […] The wells were photographed again. The gaps were measured in each photograph using Adobe Photoshop software, and gap measurements are presented as the number of pixels in the gap.
# [9] = test system: human retinal endothelial cells; experiment: Actin stress fiber formation (rhodamine-phalloidin F-actin staining), VEGF, Example 8; assay type: cell-based; conditions: for effect on VEGF-induced stress fiber pattern: then VEGF 25 ng/ml 30 minutes
# Description: . […] To counter-stain for nuclei, 100 μl of a 3 μM DAPI (4,6-diamidino-2-phenylindole, dilactate (Invitrogen)) solution was added to each well. After 5 minutes, the cells were washed two times with 100 μl PBS.
# [10] = test system: human retinal endothelial cells; experiment: TER of retinal endothelial cell monolayers with steroid receptor antagonists, Example 6; conditions: for effect on TER compared to the control: 0.1 μM, Example 6
# [11] = test system: human retinal endothelial cells; experiment: Actin stress fiber formation (rhodamine-phalloidin F-actin staining), TNFα, Example 7; conditions: 30 minutes
# HUVECs [12] = experiment: HUVEC invasion (BioCoat Matrigel Invasion Chambers); assay type: cell-based, human; conditions: 10 μM and 100 μM, 24 hours
# Description: BioCoat Matrigel Invasion Chambers were purchased from BD Biosciences (San Jose, Calif.). Inserts were rehydrated at 37° C. with 500 μl HBSS for 2 hours prior to use in humidified incubator. Trypsinized HUVECs were washed twice with warm EGM-2 containing 0.1% FCS and added to the upper chamber of the invasion insert at 100,000 cells in a total volume of 250 μl. […]. Non-invasive cells were removed from the upper chamber with moistened cotton swabs and then the inserts were washed twice with HBSS. The inserts were then submerged in 10 μM calcein AM prepared in HBSS and incubated for 4 hours. Fluorescence was determined in a microplate reader at 485 nm excitation and 595 nm emission.
# All data is presented as representative experiment done in triplicate. Differences between subsets were analyzed using student t-test in Microsoft Excel. P<0.05 was considered statistically significant.
# Akt = Akt phosphorylation (CASE ELISA kit for AKT S473) in retinal endothelial cells; assay type: cell-based, human; conditions: all of the concentrations (0.5-50.0 μM)
# Description: The cells were grown in a 25 cm^2 flask to near confluence in EGM-2 medium (Lonza, Walkersville, Md.) containing 2% fetal calf serum (Lonza). […] The plate was incubated at 37° C. with 5% CO2 for 24 hours. […] After this incubation, the cells were fixed immediately with 4% formaldehyde, refrigerated, and the extent of phosphorylation of Akt determined using the Akt Cellular Activation of Signaling ELISA Kit (CASE™ Kit for AKT 5473; SABiosciences, Frederick, Md.) following the manufacturer's protocols. The CASE™ Kit for AKT S473 quantifies the amount of activated (phosphorylated) Akt protein relative to total Akt protein in parallel assays using a conventional ELISA format with colorimetric detection. The Akt phosphorylation site is serine 473 and is recognized by one of the antibodies used in one of the two parallel assays to provide a measure of activated Akt protein. The other antibody used in the other parallel assay recognizes Akt to provide a measure of total Akt protein. Both primary antibodies are detected using a horseradish peroxidase-labeled secondary antibody. Addition of the manufacturer's Developing Solution for 10 minutes, followed by addition of the manufacturer's Stop Solution, produces the result which can be measured colorimetrically.
# [13] = test system: human retinal endothelial cells; experiment: Actin stress fiber formation, Example 11, retinal cells
# VE-Cadherin = experiment: VE-cadherin phosphorylation (immunoprecipitation, Pro-Q diamond / SYPRO ruby densitometry); assay type: cell-based, human; conditions: danazol 0.1 μM, VEGF 50 ng/ml
# Description: The plates were immediately treated to lyse the cells as follows. PBS and the lysis buffer (PBS containing 1% Triton X-100 supplemented with phosphatase inhibitor solutions 1 and 2 (Sigma), protease inhibitor (Sigma) and sodium orthovanadate at a final concentration of 2 mM) were cooled to 4° C. The cells were washed two times with 5 ml of the ice cold PBS and then lysed in 500 μl of the ice cold lysis buffer. The resulting protein extracts were transferred to 1.7 ml microcentrifuge tubes, and cell debris was removed by spinning at 4° C. at 10,000 rpm for 10 minutes. Then, 450 μl of the cleared solution was transferred to tubes containing 25 μl of Protein Dynabeads (Invitrogen) coated with 10 μl C19 anti-VE cadherin polyclonal antibody (Santa Cruz Biotechnology) (coating performed following manufacturer's protocol). The extracts and beads were then incubated overnight at 4° C. on an orbital shaker to capture VE cadherin from the extracts. The beads were then washed four times with ice cold lysis buffer. To release the protein from the beads, they were heated for 10 minutes at 75° C. in SDS loading dye containing 20% reducing dye (Invitrogen).
# The released proteins were separated in 4-20% polyacrylamide gels (Invitrogen) at 120 volts for 1 hour. To determine phosphorylation and total protein in the gels, Pro-Q diamond (Invitrogen) and SYPRO ruby (Invitrogen) protein staining were sequentially performed following the manufacturer's protocol. The gels were photographed and densitometry performed using a Kodak imaging station.
# [14] = test system: human renal glomerular microvascular endothelial cells; experiment: ECIS, Example 12, glomerular cells; conditions: danazol 1 μM, S1P 1 μM
# [15] = test system: human retinal endothelial cells; experiment: ECIS (electric cell-substrate impedance sensing), Example 12, retinal cells
# [16] = 0.1 μM hydroxyflutamide followed by 0.1 μM danazol
compound,measurement,setting,value
"C#C[C@]1(O)CC[C@H]2[C@@H]3CCC4=Cc5oncc5C[C@]4(C)[C@H]3CC[C@@]21C [Danazol, 17α-pregna-2,4-dien-20-yno[2,3-d]isoxazol-17β-ol]",effect on TER,[1],did not appear to have much effect
same,effect on the TER reduction caused by hydroxyflutamide,[2]; [16],prevented the reduction caused by hydroxyflutamide
same,effect on TER compared to the control,[2],increased the TER measurements
same,effect on tube formation,HUVECs [3]; 1 μM or 10 μM,no effect on tube formation
same,effect on tube formation,HUVECs [3]; 50 μM,effective inhibitor of tube formation
same,effect on TER,[4],enhanced TER measurements
same,effect on TER,[5],enhanced TER measurements
same,effect on TNFα-induced stress fibers,[6],decreased the stress fiber formation and the thickness of the fibers at all times
same,effect on cell proliferation,[7],complete arrest of cell proliferation
same,effect on HUVEC migration,HUVECs [8],significantly inhibit HUVEC migration
same,effect on VEGF-induced stress fiber pattern,[9]; 0.1 μM danazol 30 minutes,made the stress fibers less pronounced and some diffuse staining appeared
same,F-actin staining pattern,[9]; 0.1 μM danazol alone,diffuse F-actin staining throughout the cytoplasm
same,effect on VEGF-induced stress fiber pattern,[9]; 1.0 μM danazol 30 minutes,"fewer thick stress fibers, but focal points were seen on contact surfaces"
same,F-actin staining pattern,[9]; 1.0 μM danazol alone,"the diffuse staining persisted, but stress fibers and focal points around the perimeter of most cells were visible"
same,effect on VEGF-induced stress fiber pattern,[9]; 10.0 μM danazol 30 minutes,strong stress fiber development with focal points
same,F-actin staining pattern,[9]; 10.0 μM danazol alone,"no longer any diffuse staining, and stress fiber development and focal points were seen"
same,effect on the TER reduction caused by hydroxyflutamide,[10]; [16],prevented the reduction caused by hydroxyflutamide
same,effect on TER compared to the control,[10],increased the TER measurements
same,F-actin staining pattern,[11]; 0.1 μM danazol,diffuse staining throughout the cytoplasm
same,F-actin staining pattern,[11]; 10.0 μM danazol,stress fibers with multiple focal points
same,effect on TNFα-induced stress fiber development,"[11]; TNFα 50 ng/ml, danazol 0.1 μM or 10 μM, LY294002 10 μM",decreased the number of cells exhibiting stress fiber development
same,effect on FCS-induced cell invasion,HUVECs [12],no effect
same,effect on Akt phosphorylation,Akt,caused an increase in Akt phosphorylation
same,effect on S1P-induced cortical actin rings,"[13]; danazol 1 μM with S1P 1 μM, at 3 hours",seemed to enhance the cortical rings
same,effect on TNFα-induced stress fibers,[13]; danazol 1 μM with TNFα 1 ng/ml,decreased the stress fiber formation and/or the thickness of the fibers at all times
same,effect on VE-cadherin phosphorylation,VE-Cadherin,caused an increase in VE-cadherin phosphorylation
same,time after treatment until which there was no effect on ECIS,[14],about 30 hours
VEGF,F-actin staining pattern,"[9]; VEGF 25 ng/ml alone, 30 minutes",strong stress fiber development
same,effect on VE-cadherin phosphorylation,VE-Cadherin,caused an even greater increase in VE-cadherin phosphorylation
same,Relative intensity - SYPRO results (total protein),VE-Cadherin; Nil (ethanol control) 1.00,0.84
"C[C@]12CC[C@H]3[C@@H](CCC4=CC(=O)CC[C@@]43C)[C@@H]1CC[C@@H]2O [Testosterone, testosterone]",effect on TER compared to the control,[2],reduced the readings very slightly
"CCCCCCCCCCCCC/C=C/[C@@H](O)[C@@H](N)COP(=O)(O)O [S1P, sphingosine-1 phosphate]","start of increase of ECIS as compared to untreated cells, after treatment",[15]; S1P 1 μM alone,≤ 15 min
same,persistence of increase of ECIS,"[15]; danazol 1.0 μM, S1P 1 μM",about 3 hours
same,time after treatment until which there was no effect on ECIS,[14],about 30 hours
TNFα,F-actin staining pattern,[11]; TNFα 50 ng/ml alone,strong stress fiber development with intensely staining focal points
"CC(C)(O)C(=O)Nc1ccc([N+](=O)[O-])c(C(F)(F)F)c1 [Hydroxyflutamide, hydroxyflutamide]",effect on TER compared to the control,[2],reduced the readings
same,effect on TER compared to the control,[10],reduced the readings
"C[C@]12CC[C@@H]3c4ccc(O)cc4C[C@@H](CCCCCCCCC[S+]([O-])CCCC(F)(F)C(F)(F)F)[C@H]3[C@@H]1CC[C@@H]2O (stereo partly drawn) [Fluvestrant, fluvestrant]",effect on TER compared to the control,[2],essentially no effect
same,effect on TER compared to the control,[10],increased the TER measurements
